{
  "source": "PubChem BioAssay AID1259409",
  "about": "(Chemical Carcinogenesis Research Information System (CCRIS), 2018)",
  "origin": "cited, not measured here",
  "test_system": "rodent chemically induced tumor inhibition, incidence and multiplicity",
  "assay": "CCRIS tumor inhibitor studies",
  "data": [
    {"smiles": "CC(=O)Oc1c(C)c(C)c2c(c1C)CC[C@@](C)(CCC[C@H](C)CCC[C@H](C)CCCC(C)C)O2", "values": [
      {"measurement": "tumour outcome (control, treated, inhibition, significance)", "setting": "Carcinogen: 7,12-DIMETHYLBENZ[A]ANTHRACENE, 57-97-6, Dose [Inhibitor]: 0, 0.2% IN DIET BEGINNING 1 WK PRIOR TO CARCINOGEN DOSE AND CONTINUING FOR 12 WK (STUDY DURATION: 13 WK), Route [Inhibitor]: ORAL, Species: RAT, Strain/Sex: SPRAGUE-DAWLEY/FEMALE, Target Tissue: Type of Lesion: MAMMARY GLAND: TUMORS, Dose [Carcinogen]: 10 MG IN 1 ML CORN OIL ONCE, Promoter: NONE USED", "value": "100%, 80%, 20%, p<0.05"},
      {"measurement": "tumour outcome (control, treated, inhibition, significance)", "setting": "Carcinogen: 7,12-DIMETHYLBENZ[A]ANTHRACENE, 57-97-6, Dose [Inhibitor]: 0, 10 UMOL 1/WK 5 MIN PRIOR TO EACH PROMOTER DOSE BEGINNING 2 WK POST CARCINOGEN DOSE AND CONTINUING FOR 29 WK (STUDY DU, Route [Inhibitor]: DERMAL, Species: MOUSE, Strain/Sex: SENCAR/FEMALE, Target Tissue: Type of Lesion: SKIN: PAPILLOMA, Dose [Carcinogen]: 25 NMOL ONCE, Promoter: CHRYSAROBIN, 491-58-7", "value": "100%, 93%, 7%, not significant"},
      {"measurement": "tumour outcome (control, treated, inhibition, significance)", "setting": "Carcinogen: 7,12-DIMETHYLBENZ[A]ANTHRACENE, 57-97-6, Dose [Inhibitor]: 0, 40 UMOL 1/WK 5 MIN PRIOR TO EACH PROMOTER DOSE BEGINNING 2 WK PRIOR TO CARCINOGEN DOSE AND CONTINUING FOR 29 WK (STUD, Route [Inhibitor]: DERMAL, Species: MOUSE, Strain/Sex: SENCAR/FEMALE, Target Tissue: Type of Lesion: SKIN: PAPILLOMA, Dose [Carcinogen]: 25 NMOL ONCE, Promoter: CHRYSAROBIN, 491-58-7", "value": "100%, 68%, 32%, not calculated"},
      {"measurement": "tumour outcome (control, treated, inhibition, significance)", "setting": "Carcinogen: ETHYLNITROSOUREA, 759-73-9, Dose [Inhibitor]: 0, 600 MG/KG IN 1:10 (VOLUME: VOLUME) SUNFLOWER OIL IN DIET 5 D/WK FOR 18 MO (STUDY DURATION: 18 MO), Route [Inhibitor]: ORAL, Species: RAT, Strain/Sex: ALBINO/MALE,FEMALE, Target Tissue: Type of Lesion: BRAIN: GLIOMA OR ASTROCYTOMA, Dose [Carcinogen]: 7.5 MG/KG IN SALINE BY INTRAVENOUS INJECTION ONCE 21 D AFTER CONCEPTION", "value": "22/54 (41%), 19/50 (38%), 7%, not calculated"},
      {"measurement": "tumour outcome (control, treated, inhibition, significance)", "setting": "Carcinogen: ETHYLNITROSOUREA, 759-73-9, Dose [Inhibitor]: 0, 600 MG/KG IN 1:10 (VOLUME: VOLUME) SUNFLOWER OIL IN DIET 5 D/WK FOR 18 MO (STUDY DURATION: 18 MO), Route [Inhibitor]: ORAL, Species: RAT, Strain/Sex: ALBINO/MALE,FEMALE, Target Tissue: Type of Lesion: NERVOUS SYSTEM: SCHWANNOMA, Dose [Carcinogen]: 7.5 MG/KG IN SALINE BY INTRAVENOUS INJECTION ONCE 21 D AFTER CONCEPTION", "value": "7/54 (13%), 5/50 (10%) 23%, not calculated"},
      {"measurement": "tumour outcome (control, treated, inhibition, significance)", "setting": "Carcinogen: ETHYLNITROSOUREA, 759-73-9, Dose [Inhibitor]: 0, 600 MG/KG IN 1:10 (VOLUME: VOLUME) SUNFLOWER OIL IN DIET 5 D/WK FOR 18 MO (STUDY DURATION: 18 MO), Route [Inhibitor]: ORAL, Species: RAT, Strain/Sex: ALBINO/MALE,FEMALE, Target Tissue: Type of Lesion: SPINAL CORD: TUMOR, Dose [Carcinogen]: 7.5 MG/KG IN SALINE BY INTRAVENOUS INJECTION ONCE 21 D AFTER CONCEPTION", "value": "3/54 (6%), 6/50 (12%), -100%, not calculated"}
    ]},
    {"smiles": "C[C@@]12C[C@@]3(O)O[C@@H](O1)[C@]1(COC(=O)c4ccccc4)[C@H]3C[C@@]12O[C@@H]1O[C@H](CO)[C@@H](O)[C@H](O)[C@H]1O", "values": [
      {"measurement": "tumour outcome (control, treated, inhibition, significance)", "setting": "Carcinogen: AZOXYMETHANE, 25843-45-2, Dose [Inhibitor]: 0, 0.02% IN DIET IN WK 1-3 OF STUDY FOLLOWED BY BASAL DIET FOR DURATION OF STUDY (STUDY DURATION: 1 YR), Route [Inhibitor]: ORAL, Species: RAT, Strain/Sex: F344/MALE, Target Tissue: Type of Lesion: LARGE INTESTINE: ADENOCARCINOMA, Dose [Carcinogen]: 15 MG/KG BW 1/WK IN WK 1 AND 2 OF STUDY, Promoter: NONE USED", "value": "13/27 (48%), 5/28 (18%), 63%, not significant"},
      {"measurement": "tumour outcome (control, treated, inhibition, significance)", "setting": "Carcinogen: AZOXYMETHANE, 25843-45-2, Dose [Inhibitor]: 0, 0.02% IN DIET IN WK 1-3 OF STUDY FOLLOWED BY BASAL DIET FOR DURATION OF STUDY (STUDY DURATION: 1 YR), Route [Inhibitor]: ORAL, Species: RAT, Strain/Sex: F344/MALE, Target Tissue: Type of Lesion: LARGE INTESTINE: ADENOMA, Dose [Carcinogen]: 15 MG/KG BW 1/WK IN WK 1 AND 2 OF STUDY, Promoter: NONE USED", "value": "6/27 (22%), 9/28 (32%), -45%, not significant"}
    ]},
    {"smiles": "COc1cc2c(cc1OC)[C@@H]1C(=O)c3ccc4c(c3O[C@@H]1CO2)C=CC(C)(C)O4", "values": [
      {"measurement": "tumour outcome (control, treated, inhibition, significance)", "setting": "Carcinogen: 7,12-DIMETHYLBENZ[A]ANTHRACENE, 57-97-6, Dose [Inhibitor]: 0, 33 UG 2/WK FOR 15 WK APPLIED 1 HR PRIOR TO EACH PROMOTER DOSE (STUDY DURATION: 15 WK), Route [Inhibitor]: DERMAL, Species: MOUSE, Strain/Sex: CD-1/FEMALE, Target Tissue: Type of Lesion: SKIN: TUMOR, Dose [Carcinogen]: 100 UG ONCE, Promoter: 12-O-TETRADECANOYLPHORBOL-13-ACETATE, 16561-29-8", "value": "60%, 10%, 83%, p<0.05"},
      {"measurement": "tumour outcome (control, treated, inhibition, significance)", "setting": "Carcinogen: 7,12-DIMETHYLBENZ[A]ANTHRACENE, 57-97-6, Dose [Inhibitor]: 0, 330 UG 2/WK FOR 15 WK APPLIED 1 HR PRIOR TO EACH PROMOTER DOSE (STUDY DURATION: 15 WK), Route [Inhibitor]: DERMAL, Species: MOUSE, Strain/Sex: CD-1/FEMALE, Target Tissue: Type of Lesion: SKIN: TUMOR, Dose [Carcinogen]: 100 UG ONCE, Promoter: 12-O-TETRADECANOYLPHORBOL-13-ACETATE, 16561-29-8", "value": "60%, 0%, 100%, p<0.05"},
      {"measurement": "tumour outcome (control, treated, inhibition, significance)", "setting": "Carcinogen: N-METHYL-N-NITROSOUREA, 684-93-5, Dose [Inhibitor]: 0, 2 MG/KG BW 5 D/WK FOR DURATION OF STUDY BEGINNING 2 WK PRIOR TO CARCINOGEN DOSE (STUDY DURATION: 194 D), Route [Inhibitor]: GAVAGE, Species: RAT, Strain/Sex: SPRAGUE-DAWLEY/FEMALE, Target Tissue: Type of Lesion: MAMMARY GLAND: ADENOCARCINOMA, Dose [Carcinogen]: 50 MG/KG BW ONCE, Promoter: NONE USED", "value": "100%, 100%, 0%, not significant"},
      {"measurement": "tumour outcome (control, treated, inhibition, significance)", "setting": "Carcinogen: N-METHYL-N-NITROSOUREA, 684-93-5, Dose [Inhibitor]: 0, 4 MG/KG BW 5 D/WK FOR DURATION OF STUDY BEGINNING 2 WK PRIOR TO CARCINOGEN DOSE (STUDY DURATION: 194 D), Route [Inhibitor]: GAVAGE, Species: RAT, Strain/Sex: SPRAGUE-DAWLEY/FEMALE, Target Tissue: Type of Lesion: MAMMARY GLAND: ADENOCARCINOMA, Dose [Carcinogen]: 50 MG/KG BW ONCE, Promoter: NONE USED", "value": "100%, 100%, 0%, not significant"}
    ]},
    {"smiles": "CC/C=C\\C/C=C\\C/C=C\\CCCCCCCC(=O)OC[C@H](CO[C@@H]1O[C@H](CO[C@H]2O[C@H](CO)[C@H](O)[C@H](O)[C@H]2O)[C@H](O)[C@H](O)[C@H]1O)OC(=O)CCCCCCCCCCCCC", "values": [
      {"measurement": "tumour outcome (control, treated, inhibition, significance)", "setting": "Carcinogen: 7,12-DIMETHYLBENZ[A]ANTHRACENE, 57-97-6, Dose [Inhibitor]: 0, 85 NMOL IN 0.1 ML ACETONE 2/WK FOR 20 WK APPLIED 1 HR PRIOR TO EACH PROMOTER DOSE (STUDY DURATION: 21 WK), Route [Inhibitor]: DERMAL, Species: MOUSE, Strain/Sex: ICR/FEMALE, Target Tissue: Type of Lesion: SKIN: PAPILLOMA, Dose [Carcinogen]: 390 NMOL IN 0.1 ML ACETONE ONCE, Promoter: 12-O-TETRADECANOYLPHORBOL-13-ACETATE, 16561-29-8", "value": "100%, 68%, 32%, p<0.05"}
    ]},
    {"smiles": "Cc1ccc(O)c(C(C)(C)C)c1", "values": [
      {"measurement": "tumour outcome (control, treated, inhibition, significance)", "setting": "Carcinogen: 7,12-DIMETHYLBENZ[A]ANTHRACENE, 57-97-6, Dose [Inhibitor]: 1.0% IN POWDERED DIET BEGINNING 1 WK POST CARCINOGEN DOSE FOR 51 WK (STUDY DURATION: 52 WK), Route [Inhibitor]: ORAL, Species: RAT, Strain/Sex: SPRAGUE-DAWLEY/FEMALE, Target Tissue: Type of Lesion: EAR DUCT: BENIGN TUMOR, Dose [Carcinogen]: 2.5 MG/100 G BW IN 0.5 ML SESAME OIL ONCE, Promoter: NONE USED", "value": "7/19 (37%), 5/19 (26%), 29%, not calculated"},
      {"measurement": "tumour outcome (control, treated, inhibition, significance)", "setting": "Carcinogen: 7,12-DIMETHYLBENZ[A]ANTHRACENE, 57-97-6, Dose [Inhibitor]: 1.0% IN POWDERED DIET BEGINNING 1 WK POST CARCINOGEN DOSE FOR 51 WK (STUDY DURATION: 52 WK), Route [Inhibitor]: ORAL, Species: RAT, Strain/Sex: SPRAGUE-DAWLEY/FEMALE, Target Tissue: Type of Lesion: MAMMARY GLAND: CARCINOMA, Dose [Carcinogen]: 2.5 MG/100 G BW IN 0.5 ML SESAME OIL ONCE, Promoter: NONE USED", "value": "6/19 (32%), 6/19 (32%), 0%, not significant"},
      {"measurement": "tumour outcome (control, treated, inhibition, significance)", "setting": "Carcinogen: 7,12-DIMETHYLBENZ[A]ANTHRACENE, 57-97-6, Dose [Inhibitor]: 1.0% IN POWDERED DIET BEGINNING 1 WK POST CARCINOGEN DOSE FOR 51 WK (STUDY DURATION: 52 WK), Route [Inhibitor]: ORAL, Species: RAT, Strain/Sex: SPRAGUE-DAWLEY/FEMALE, Target Tissue: Type of Lesion: MAMMARY GLAND: FIBROADENOMA, Dose [Carcinogen]: 2.5 MG/100 G BW IN 0.5 ML SESAME OIL ONCE, Promoter: NONE USED", "value": "15/19 (79%), 2/19 (11%), 87%, p<0.001"}
    ]}
  ]
}
